Where no end group is shown, it is not given here.
Experiments:
[1] = tested on: extracellular domain of BAK1 (BAK1-ECD); assay: Yeast two-hybrid with BAK1-ECD; type: binding, Arabidopsis thaliana; conditions: yeast AH109, medium lacking Leu, Trp, His
Source text: Fig 6 AtRALF1 interacts physically with BAK1 protein. (A) The active AtRALF1 peptide interacts with the extracellular domain (ECD) of BAK1 (BAK1-ECD) in yeast. The AtRALF1 protein fused to the GAL4 DNA-binding domain (AtRALF1-pGBKT7) was used as bait to test its interaction with the extracellular domain of the proteins fused to the GAL4 activation domain (pGADT7): BAK1 (BAK1-ECD), BAK7 (BAK7-ECD), BRI1 (BRI1-ECD) and FLS2 (FLS2-ECD). (B) Blueprint showing the truncated proteins from the extracellular domain of BAK1 tested in the two-hybrid assay. The extracellular domain of BAK1 comprises leucine zippers (LZ), 5 leucine rich-regions (LRRs) and a proline-rich region (pro-rich). (C) AtRALF1-pGBKT7 was used as bait to test its interaction with truncated proteins fused to the GAL4 activation domain (pGADT7). […] HA-BAK1-ECD was detected with an anti-HA antibody. AtRALF1 was detected with an anti-RALF antibody. […] BAK1-GFP was detected with an anti-GFP antibody. […]
The coding regions of the mature peptides AtRALF1 and AtRALF34 were amplified from Arabidopsis genomic DNA and fused to the GAL4 DNA-binding domain and the MYC epitope tag using the NdeI/BamHI sites in the pGBKT7 (Clontech) vector. […] The proteins fused to the HA and MYC epitope tags were detected by protein blotting. […]

[2] = tested on: Arabidopsis endodermic root cells; assay: Root cell length, endodermis of differentiation zone; type: in vivo, Arabidopsis thaliana; conditions: 10 μM, 2 days
Protocol: (A) and (B) Arabidopsis seedlings (2 days old) were treated with 10 μM AtRALF1 or water (H20) for 2 days. The values are the mean ± SD of at least 25 seedlings. Triple asterisks indicate P < 0.01 (Student’s t test); ns, not significant. (C) Four-day-old seedlings were transferred to media containing different concentrations of AtRALF1, and the primary root length was measured after 8 days of treatment. The data represent the mean value ± SD of 30 seedlings. […] Representative Arabidopsis seedlings after 8 days of treatment with AtRALF1 are shown below. Seedlings were arranged on plates after the treatment for imaging. Scale bars, 1 cm. (D) Two-day-old seedlings were treated with 10 μM AtRALF1 or water for 2 days, and root cell length was measured after 2 days of treatment. Cells from the root endodermis in the differentiation zone were measured. The values are the mean ± SD of approximately 150 cells. […]
Aliquots of 1 ml of medium containing seeds were distributed into 24-well plates. The peptides (10 μM) were added after 2 days, and the root length was measured 2 days after treatment. […] The root length was measured 8 days after treatment unless stated otherwise. […] Quantitative data were obtained as previously described. […] For cell length measurements, AtRALF1 peptide (10 μM) was added after 2 days of germination, and the cell length was measured after 2 days of treatment. […]

## AtRALF1: root-specific RALF isoform in Arabidopsis; recombinant peptide hormone produced in E. coli (ATTKYISYQSLKRNSVPCSRRGASYYNCQNGAQANPYSRGCSKIARCRS; ends and bridges not checked; cysteine pairing not given here)
[1]
  interaction with BAK1-ECD (Y2H complementation): able to complement only the BAK1-ECD construct
[2]; bak1-1, bak1-3, bak1-4
  root cell length vs water-treated control: showed no difference between AtRALF1-treated plants and the water-treated control
[2]; wild-type, ~150 cells
  reduction of root cell length vs water-treated control: 58%

— paper PMC5656322, “BAK1 is involved in AtRALF1-induced inhibition of root cell expansion” (PLoS Genetics, 2017)
